Molecules are shown by their SMILES. pIC50: −log10 of the molar value. Peptide text beside a SMILES is read from it. * marks the point of attachment. X2 = CC[C@@H](C)[C@H](CN[C@@H](Cc1ccccc1)C(=O)O)N*

The target of experiment [1] is T1, Neurotensin receptor type 1 (Rattus norvegicus, UniProt P20789). Description: IC50 was measured as binding to rat cortex membranes using [3H]- NT(neurotensin) as tracer.
The target of experiment [2] is T1, Neurotensin receptor type 1. Description: IC50 was measured as binding to rat cortex membranes using [3H]- NT (neurotensin) as tracer.
In experiment [3] the target is Neurotensin receptor type 1 (Rattus norvegicus) (UniProt P20789). Description: Relative potency at neurotensin receptor compared to neurotensin (NT8-13).
Neurotensin receptor type 1 (Rattus norvegicus), sequence (P20789 whole entry): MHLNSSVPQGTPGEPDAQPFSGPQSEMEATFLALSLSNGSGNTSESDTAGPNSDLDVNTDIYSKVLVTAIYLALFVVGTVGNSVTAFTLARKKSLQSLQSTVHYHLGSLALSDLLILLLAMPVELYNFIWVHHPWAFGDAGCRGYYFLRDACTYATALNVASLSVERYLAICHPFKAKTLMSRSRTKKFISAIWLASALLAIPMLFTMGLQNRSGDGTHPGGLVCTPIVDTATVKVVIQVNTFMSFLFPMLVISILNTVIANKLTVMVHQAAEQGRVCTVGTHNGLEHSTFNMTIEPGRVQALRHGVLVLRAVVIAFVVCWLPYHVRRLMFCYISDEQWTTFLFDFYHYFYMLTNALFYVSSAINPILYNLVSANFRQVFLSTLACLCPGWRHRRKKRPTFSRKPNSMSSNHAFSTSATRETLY

T1 sequence (P20789 whole entry): as above

For orientation: pIC50 means the IC50 on a negative log10 scale, so that one unit is a factor of ten. Lower therefore signals a high IC50. Take `CC[C@H](C)[C@H](NC[C@H](Cc1ccc(O)cc1)NC(=O)[C@@H]1CCCN1C(=O)[C@H](CCCN=C(N)N)NC(=O)[C@@H](N)CCCN=C(N)N)C(=O)N[C@@H](CC(C)C)C(=O)O`: in experiment [1], the pIC50 was 5.20. In experiment [1], `CC[C@H](C)[C@H](NC(=O)[C@H](Cc1ccc(O)cc1)NC(=O)[C@@H]1CCCN1C(=O)[C@H](CCCNC(=N)N)NC(=O)[C@@H](N)CCCNC(=N)N)C(=O)N[C@@H](Cc1ccccc1)C(=O)O` had a pIC50 of 8.30. The same measure, in the same setting: the figure for `CC(C)C[C@H](NC(=O)[C@H](Cc1ccccc1)NC(=O)[C@H](Cc1ccc(O)cc1)NC(=O)[C@@H]1CCCN1C(=O)[C@H](CCCN=C(N)N)NC(=O)[C@@H](N)CCCN=C(N)N)C(=O)O` is 8.10. Molecule `CC[C@H](C)[C@H](NC(C#N)[C@@H](Cc1ccc(O)cc1)NC(=O)[C@@H]1CCCN1C(=O)[C@H](CCCN=C(N)N)NC(=O)[C@@H](N)CCCN=C(N)N)C(=O)N[C@@H](CC(C)C)C(=O)O` (some centres undefined) had a pIC50 in experiment [2] of 6.74. The molecule further yielded a Relative potency in experiment [3] of 5.5. Turning to `CC(C)C[C@H](NC(=O)[C@H](CC(=O)[C@H](Cc1ccc(O)cc1)NC(=O)[C@@H]1CCCN1C(=O)[C@H](CCCNC(=N)N)NC(=O)[C@@H](N)CCCNC(=N)N)Cc1ccccc1)C(=O)O`, the pIC50 in experiment [1] is 5.92. Also, the Relative potency in experiment [3] is 0.8. In the case of `CC[C@H](C)[C@H](NC(C#N)[C@H](Cc1ccc(O)cc1)NC(=O)C1CCCN1C(=O)[C@H](CCCN=C(N)N)NC(=O)[C@@H](N)CCCN=C(N)N)C(=O)N[C@@H](CC(C)C)C(=O)O` (some centres undefined), the negative-log IC50 (pIC50) in experiment [2] was 5.00. In experiment [3], this molecule displayed a Relative potency of 0.1. `CC(C)C[C@H](NC(=O)[C@@H](Cc1ccccc1)NC(=O)[C@H](Cc1ccc(O)cc1)NC(=O)[C@@H]1CCCN1C(=O)[C@H](CCCN=C(N)N)NC(=O)[C@@H](N)CCCN=C(N)N)C(=O)O` came in with a Relative potency in experiment [3] of 105. On the same count and under the same terms, in the case of `CC[C@@H](C)[C@@H](NC(=O)[C@H](Cc1ccc(O)cc1)NC(=O)[C@@H]1CCCN1C(=O)[C@H](CCCN=C(N)N)NC(=O)[C@@H](N)CCCN=C(N)N)C(=O)N[C@@H](Cc1ccccc1)C(=O)O` it was 200; in that of `CC[C@@H](C)[C@@H](NC[C@H](Cc1ccc(O)cc1)NC(=O)[C@@H]1CCCN1C(=O)[C@H](CCCN=C(N)N)NC(=O)[C@@H](N)CCCN=C(N)N)C(=O)N[C@@H](CC(C)C)C(=O)O`, 0.1. Molecule `CC[C@@H](C)[C@H](CN[C@@H](Cc1ccccc1)C(=O)O)NC(=O)[C@H](Cc1ccc(O)cc1)NC(=O)[C@@H]1CCCN1C(=O)[C@H](CCCNC(=N)N)NC(=O)[C@@H](N)CCCNC(=N)N` (H-RRPY-X2) had a pIC50 in experiment [1] of 5.10.

The molecule `CC[C@@H](C)[C@H](CN[C@@H](Cc1ccccc1)C(=O)O)NC(=O)[C@H](Cc1ccc(O)cc1)NC(=O)[C@@H]1CCCN1C(=O)[C@H](CCCN=C(N)N)NC(=O)[C@@H](N)CCCN=C(N)N` (H-RRPY-X2) came in with a Relative potency in experiment [3] of 0.1. On to `CC[C@H](C)[C@H](NC(=O)[C@H](Cc1ccc(O)cc1)NC(=O)[C@@H]1CCCN1C(=O)[C@H](CCCN=C(N)N)NC(=O)[C@@H](N)CCCN=C(N)N)C(=O)C[C@H](Cc1ccccc1)C(=O)O` (mixture of isomers) [listing 1 of 2 here], for which the pIC50 in experiment [1] was 6.05. With `CC[C@H](C)[C@H](NC(=O)[C@H](Cc1ccc(O)cc1)NC(=O)[C@@H]1CCCN1C(=O)[C@H](CCCN=C(N)N)NC(=O)[C@@H](N)CCCN=C(N)N)C(=O)C[C@H](Cc1ccccc1)C(=O)O` (mixture of isomers) [listing 2 of 2 here], the Relative potency in experiment [3] was determined as 1.1. Molecule `CC(C)C[C@H](NC(=O)C(CC(=O)[C@H](Cc1ccc(O)cc1)NC(=O)[C@@H]1CCCN1C(=O)[C@H](CCCNC(=N)N)NC(=O)[C@@H](N)CCCNC(=N)N)Cc1ccccc1)C(=O)O` (single isomer, unassigned) gave a pIC50 in experiment [1] of 7.82. Also, the Relative potency in experiment [3] came out at 66.6. `CC[C@H](C)[C@H](NC(=O)[C@H](Cc1ccc(O)cc1)NC(=O)[C@@H]1CCCN1C(=O)[C@H](CCCN=C(N)N)NC(=O)[C@@H](N)CCCN=C(N)N)C(=O)C[C@H](Cc1ccccc1)C(=O)O` (stereo in doubt; 13a) [listing 1 of 2 here] showed a pIC50 in experiment [1] of 6.92. Molecule `CC[C@H](C)[C@H](NC(=O)[C@H](Cc1ccc(O)cc1)NC(=O)[C@@H]1CCCN1C(=O)[C@H](CCCN=C(N)N)NC(=O)[C@@H](N)CCCN=C(N)N)C(=O)C[C@H](Cc1ccccc1)C(=O)O` (stereo in doubt; 13a) [listing 2 of 2 here] displayed a Relative potency in experiment [3] of 8.3.

In the case of `CC[C@H](C)[C@H](NC(=O)[C@H](Cc1ccc(O)cc1)NC(=O)[C@@H]1CCCN1C(=O)[C@H](CCCN=C(N)N)NC(=O)[C@@H](N)CCCN=C(N)N)C(=O)C[C@H](Cc1ccccc1)C(=O)O` (stereo in doubt; 13b) [listing 1 of 2 here], the pIC50 in experiment [1] was 5.92.

In experiment [3], `CC[C@H](C)[C@H](NC(=O)[C@H](Cc1ccc(O)cc1)NC(=O)[C@@H]1CCCN1C(=O)[C@H](CCCN=C(N)N)NC(=O)[C@@H](N)CCCN=C(N)N)C(=O)C[C@H](Cc1ccccc1)C(=O)O` (stereo in doubt; 13b) [listing 2 of 2 here] showed a Relative potency of 0.8.

For the molecule `CC[C@H](C)[C@H](NC(=O)[C@H](Cc1ccc(O)cc1)NC(=O)[C@@H]1CCCN1C(=O)[C@H](CCCN=C(N)N)NC(=O)[C@@H](N)CCCN=C(N)N)C(=O)C[C@H](Cc1ccccc1)C(=O)O` (stereo in doubt; 13c) [listing 1 of 2 here], the pIC50 in experiment [1] was 5.82. In experiment [3], `CC[C@H](C)[C@H](NC(=O)[C@H](Cc1ccc(O)cc1)NC(=O)[C@@H]1CCCN1C(=O)[C@H](CCCN=C(N)N)NC(=O)[C@@H](N)CCCN=C(N)N)C(=O)C[C@H](Cc1ccccc1)C(=O)O` (stereo in doubt; 13c) [listing 2 of 2 here] yielded a Relative potency of 0.6.
